Assay results: patent US9926297B2, “Bicyclic AZA compounds as muscarinic M1 receptor and/or M4 receptor agonists” (Heptares Therapeutics Limited, priority 2014, dated 2018)

Experiments:
[1] = molecular target: T1, human muscarinic M4 receptor (Homo sapiens, UniProt P08173); assay: Alphascreen Surefire phospho-ERK1/2 functional assay, M4; format: cell-based; settings: for EC50 / % Emax cf. ACh, M4: CHO cells stably expressing human M4; for EC50: phospho-ERK1/2, * = variable results, read-out: pEC50 M4 (converted); for Emax: CHO, read-out: % Emax cf. ACh, M4, CHO cells stably expressing human M4; for Emax / % Emax cf. ACh, M4: relative to ACh
T1 construct: expressed in transfected cells
T1 sequence (P08173 1-479): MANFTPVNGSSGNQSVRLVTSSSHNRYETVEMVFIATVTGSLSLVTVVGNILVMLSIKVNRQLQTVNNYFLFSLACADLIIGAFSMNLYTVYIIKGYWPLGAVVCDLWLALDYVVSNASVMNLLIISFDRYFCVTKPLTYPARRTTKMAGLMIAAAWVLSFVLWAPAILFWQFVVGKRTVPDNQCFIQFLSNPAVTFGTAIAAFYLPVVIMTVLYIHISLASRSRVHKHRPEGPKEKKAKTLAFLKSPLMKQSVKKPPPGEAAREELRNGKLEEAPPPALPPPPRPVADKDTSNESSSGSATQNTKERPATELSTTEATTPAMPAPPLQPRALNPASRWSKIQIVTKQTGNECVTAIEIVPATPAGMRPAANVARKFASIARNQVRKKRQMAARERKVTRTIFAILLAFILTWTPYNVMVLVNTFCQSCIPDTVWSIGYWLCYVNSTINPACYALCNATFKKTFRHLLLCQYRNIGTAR
Protocol: (§1) CHO cells stably expressing the human muscarinic M1, M2, M3 or M4 receptor were plated (25K/well) onto 96-well tissue culture plates in MEM-alpha+10% dialysed FBS. Once adhered, cells were serum-starved overnight. Agonist stimulation was performed by the addition of 5 μL agonist to the cells for 5 min (37° C.). Media was removed and 50 μL of lysis buffer added. After 15 min, a 4 μL sample was transferred to 384-well plate and 7 μL of detection mixture added. Plates were incubated for 2 h with gentle agitation in the dark and then read on a PHERAstar plate reader.
(§2) pEC50 and Emax figures were calculated from the resulting data for each receptor subtype.

[2] = molecular target: T2, human muscarinic M2 receptor (Homo sapiens, UniProt P08172); assay: Alphascreen Surefire phospho-ERK1/2 functional assay, M2; settings: for Emax: CHO, read-out: % Emax cf. ACh, M2, CHO cells stably expressing human M2
T2 sequence (P08172 1-466): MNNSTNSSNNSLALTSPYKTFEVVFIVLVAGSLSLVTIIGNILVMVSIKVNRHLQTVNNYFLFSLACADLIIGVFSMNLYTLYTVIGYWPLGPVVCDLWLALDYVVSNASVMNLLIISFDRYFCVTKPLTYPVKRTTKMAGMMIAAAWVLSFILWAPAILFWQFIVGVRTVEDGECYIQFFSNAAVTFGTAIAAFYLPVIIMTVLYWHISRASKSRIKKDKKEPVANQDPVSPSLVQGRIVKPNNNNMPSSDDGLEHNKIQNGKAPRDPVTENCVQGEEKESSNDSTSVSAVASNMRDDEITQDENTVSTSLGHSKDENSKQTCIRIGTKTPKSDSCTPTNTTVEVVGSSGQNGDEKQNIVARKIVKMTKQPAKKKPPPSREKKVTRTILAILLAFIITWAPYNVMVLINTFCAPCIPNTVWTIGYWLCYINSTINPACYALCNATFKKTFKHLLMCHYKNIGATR
Protocol: as §1, §2

[3] = molecular target: T3, human muscarinic M1 receptor (Homo sapiens, UniProt P11229); assay: Alphascreen Surefire phospho-ERK1/2 functional assay, M1; format: cell-based; settings: for EC50: read-out: pEC50 M1 (converted); for Emax: CHO, read-out: % Emax cf. ACh, M1, CHO cells stably expressing human M1; for Emax / % Emax cf. ACh, M1: relative to ACh
T3 sequence (P11229 1-460): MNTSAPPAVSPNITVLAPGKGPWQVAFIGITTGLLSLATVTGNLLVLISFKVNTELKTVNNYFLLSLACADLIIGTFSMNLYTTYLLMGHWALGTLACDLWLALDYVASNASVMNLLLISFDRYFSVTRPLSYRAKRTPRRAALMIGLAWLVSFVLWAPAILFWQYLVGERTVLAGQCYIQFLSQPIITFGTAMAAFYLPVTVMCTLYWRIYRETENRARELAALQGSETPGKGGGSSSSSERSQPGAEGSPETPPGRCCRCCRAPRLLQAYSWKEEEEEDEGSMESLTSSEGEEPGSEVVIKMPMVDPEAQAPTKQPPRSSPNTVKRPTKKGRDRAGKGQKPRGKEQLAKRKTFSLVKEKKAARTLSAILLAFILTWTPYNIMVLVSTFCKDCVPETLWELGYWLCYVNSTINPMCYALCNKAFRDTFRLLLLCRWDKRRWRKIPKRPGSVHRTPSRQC

[4] = molecular target: human muscarinic M3 receptor (Homo sapiens, UniProt P20309); assay: Alphascreen Surefire phospho-ERK1/2 functional assay, M3; settings: for Emax: CHO, read-out: % Emax cf. ACh, M3, CHO cells stably expressing human M3; for EC50: pEC50 M3, CHO cells stably expressing human M3
Protocol: as §1, §2

[5] = CHO cells stably expressing human M1, phospho-ERK1/2, * = variable results
[6] = phospho-ERK1/2, * = variable results
[7] = CHO cells stably expressing human M1

Chain of human muscarinic M3 receptor (P20309 whole entry): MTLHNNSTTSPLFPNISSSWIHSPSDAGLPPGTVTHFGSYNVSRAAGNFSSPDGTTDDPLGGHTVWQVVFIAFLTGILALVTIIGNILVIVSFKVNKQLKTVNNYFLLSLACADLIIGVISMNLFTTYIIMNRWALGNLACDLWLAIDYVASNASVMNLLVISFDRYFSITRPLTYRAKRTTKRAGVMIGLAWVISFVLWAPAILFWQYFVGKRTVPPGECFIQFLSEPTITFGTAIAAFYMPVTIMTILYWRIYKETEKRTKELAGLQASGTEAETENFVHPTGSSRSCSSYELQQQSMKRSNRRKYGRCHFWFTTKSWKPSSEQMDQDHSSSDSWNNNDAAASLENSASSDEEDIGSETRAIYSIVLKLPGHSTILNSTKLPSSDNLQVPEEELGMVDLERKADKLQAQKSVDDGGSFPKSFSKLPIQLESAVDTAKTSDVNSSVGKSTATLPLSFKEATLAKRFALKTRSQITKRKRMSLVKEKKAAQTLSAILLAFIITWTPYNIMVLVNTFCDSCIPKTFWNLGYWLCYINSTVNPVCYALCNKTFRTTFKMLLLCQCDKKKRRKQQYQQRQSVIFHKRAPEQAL

Compound | EC50 [1] | Emax [1] | EC50 [2] | Emax ([2]; relative to ACh) | EC50 [3, 5] | Emax [3] | Emax ([4]; relative to ACh) | EC50 [4, 6] | % Emax cf. ACh, M4 [1] | pEC50 M2 ([2]; CHO cells stably expressing human M2, phospho-ERK1/2, * = variable results) | % Emax cf. ACh, M2 ([2]; CHO cells stably expressing human M2, relative to ACh) | % Emax cf. ACh, M1 [3, 7] | pEC50 M3 ([4]; CHO cells stably expressing human M3, phospho-ERK1/2, * = variable results) | % Emax cf. ACh, M3 ([4]; CHO cells stably expressing human M3, relative to ACh) | pEC50 M1 [3, 5]
CCOC(=O)N1CCC2(CC(N3CCC(c4nccn4C(=O)OCC)CC3)C2)C1 (single isomer, unassigned) [1-8 Isomer 2, ethyl 2-{4-[1-(ethoxycarbonyl)-1H-imidazol-2-yl]piperidin-1-yl}-6-azaspiro[3.4]octane-6-carboxylate] | 15.8 nM | 98% | > 20000 nM | 34% | 316 nM | 76% | 0% | > 20000 nM | – | – | – | – | – | – | –
CCOC(=O)N1CCC2(CC(N3CCC([C@@H]4CCCN4C(=O)NC4(C)COC4)CC3)C2)C1 (single isomer, unassigned) [2-36 Isomer 2] | 6.31 nM | 113% | > 20000 nM | 3% | 158 nM | 89% | 5% | > 20000 nM | – | – | – | – | – | – | –
CCOC(=O)N1CCC2(CC(N3CCC(N4CCC[C@]4(C)C(=O)OC)CC3)C2)C1 (single isomer, unassigned) [2-95 Isomer 2] | 63.1 nM | 49% | > 20000 nM | 16% | > 20000 nM | 19% | 9% | > 20000 nM | – | – | – | – | – | – | –
CCOC(=O)N1CCC2(CC(N3CCC(C4CCCN(CC)C4=O)CC3)C2)C1 (single isomer, unassigned) [4-5 Isomer 2, ethyl 2-(1-ethyl-2-oxo-[3,4′-bipiperidin]-1′-yl)-6-azaspiro[3.4]octane-6-carboxylate] | 15.8 nM | 60% | > 20000 nM | 9% | 501 nM | 52% | 9% | > 20000 nM | – | – | – | – | – | – | –
CCOC(=O)N1CCC2(CC(N3CCC(N4CCCOC4=O)CC3)C2)C1 (single isomer, unassigned) [4-7 Isomer 2, ethyl 2-[4-(2-oxo-1,3-oxazinan-3-yl)piperidin-1-yl]-6-azaspiro[3.4]octane-6-carboxylate] | 251 nM | 67% | > 20000 nM | 1% | 3980 nM | 73% | 10% | > 20000 nM | – | – | – | – | – | – | –
CCOC(=O)N1CCC2(CC(N3CCC([C@H]4CCCN4C(=O)OC)CC3)C2)C1 (single isomer, unassigned) [2-13 Isomer 2] | 158 nM | 57% | > 20000 nM | 7% | 10000 nM | 69% | 24% | > 20000 nM | – | – | – | – | – | – | –
CCOC(=O)N1CCC2(CC(N3CCC(n4cc(C)cn4)CC3)C2)C1 (single isomer, unassigned) [1-34 Isomer 2, ethyl 2-[4-(4-methyl-1H-pyrazol-1-yl)piperidin-1-yl]-6-azaspiro[3.4]octane-6-carboxylate] | 2.51 nM | – | – | – | 7.94 nM | – | – | – | 117% | < 4.7 | 43% | 130% | < 4.7 | 0% | –
CCOC(=O)N1CCC2(CC(N3CCC(C4CCCN4C(=O)CNC)CC3)C2)C1 (single isomer, unassigned) [2-23 Isomer 2, ethyl 2-{4-[1-(N-methylglycyl)pyrrolidin-2-yl]piperidin-1-yl}-6-azaspiro[3.4]octane-6-carboxylate] | 50.1 nM | 104% | > 20000 nM | 3% | 1260 nM | 65% | 9% | > 20000 nM | – | – | – | – | – | – | –
CCOC(=O)N1CCC2(CC(N3CCC([C@@H]4CCCN4C(=O)N(C)CC(F)(F)F)CC3)C2)C1 (single isomer, unassigned) [2-55 Isomer 2] | 25.1 nM | – | > 20000 nM | 22% | – | – | 12% | > 20000 nM | 52% | – | – | 7% | – | – | < 4.7
CCOC(=O)N1CCC2(CC(N3CCC(n4nccn4)CC3)C2)C1 (single isomer, unassigned) [1-61 Isomer 2, ethyl 2-[4-(2H-1,2,3-triazol-2-yl)piperidin-1-yl]-6-azaspiro[3.4]octane-6-carboxylate] | 25.1 nM | 97% | > 20000 nM | 1% | 316 nM | 66% | 2% | > 20000 nM | – | – | – | – | – | – | –
CCOC(=O)N1CCC2(CC(N3CCC(c4ncns4)CC3)C2)C1 (single isomer, unassigned) [1-30 Isomer 2, ethyl 2-[4-(1,2,4-thiadiazol-5-yl)piperidin-1-yl]-6-azaspiro[3.4]octane-6-carboxylate] | 12.6 nM | 101% | > 20000 nM | 9% | 316 nM | 37% | 5% | > 20000 nM | – | – | – | – | – | – | –
CCOC(=O)N1CCC2(CC(N3CCC(N4CCCNC4=O)CC3)C2)C1 (single isomer, unassigned) [4-8 Isomer 1, ethyl 2-[4-(2-oxotetrahydropyrimidin-1(2H)-yl)piperidin-1-yl]-6-azaspiro[3.4]octane-6-carboxylate] | 63.1 nM | 74% | > 20000 nM | 3% | 501 nM | 42% | 8% | > 20000 nM | – | – | – | – | – | – | –
CCOC(=O)N1CCC2(CC(N3CCC([C@@H]4CCCN4C(=O)NCCF)CC3)C2)C1 (single isomer, unassigned) [2-44 Isomer 2] | 5.01 nM | 100% | > 20000 nM | 4% | 316 nM | 71% | 8% | > 20000 nM | – | – | – | – | – | – | –
CCOC(=O)N1CCC2(CC(N3CCC(N4CCCC[C@@H]4C(=O)OC)CC3)C2)C1 (single isomer, unassigned) [4-15 Isomer 2] | 63.1 nM | 113% | > 20000 nM | 7% | 251 nM | 82% | 13% | > 20000 nM | – | – | – | – | – | – | –
CCOC(=O)N1CCC2(CC(N3CCC([C@@H]4CCCN4C(=O)NC4CC4)CC3)C2)C1 (single isomer, unassigned) [2-29 Isomer 2] | 15.8 nM | 110% | > 20000 nM | 5% | 501 nM | 60% | 13% | > 20000 nM | – | – | – | – | – | – | –
CCOC(=O)N1CCC2(CC(N3CCC(n4ccc(C)n4)CC3)C2)C1 (single isomer, unassigned) [1-44 Isomer 2, ethyl 2-[4-(3-methyl-1H-pyrazol-1-yl)piperidin-1-yl]-6-azaspiro[3.4]octane-6-carboxylate] | 6.31 nM | 126% | > 20000 nM | 80% | 79.4 nM | 126% | 7% | > 20000 nM | – | – | – | – | – | – | –
